According to patent publication US4129659A, “Method for improving cardiovascular function with salinomycin” (The University of Miami, priority 1977, dated 1978):
Read-outs that look alike come from different tables or passages of the source.

Experiments:
[1] = test system: heart and coronary circulation of anesthetized dogs; assay: Physiological effects of ionophores in anesthetized dogs: inotropic and coronary flow potency relative to lasalocid; type: in vivo, dog
Description: Extended experimental studies were conducted involving a number of ionophores.
^1 Studies conducted on anesthetized dogs.
^2 Ionotropic potencies are expressed as the reciprocal of the dose
required to double dP/dt Max., relative to the dose of Lasolocid required
^3 Coronary flow potency is calculated as the inotropic potency,
normalized for coronary flow by the factor: coronary flow increased
produced by doubling dose of the test ionophore/coronary flow produced by
the doubling dose of Lasalocid.

[2] = test system: erythrocytes of whole fresh human blood; assay: RBC K+ leak: release of erythrocyte potassium into plasma fraction in vitro; type: cell-based; conditions: for Ratio 2/4 (coronary flow potency / RBC K+ leak potency): dog coronary flow vs human RBC K+ leak; for Ratio 2/4 (coronary flow potency / RBC K+ leak potency) / Ratio 1/4 (inotropic potency / RBC K+ leak potency) / RBC K+ Leak Potency (column 4): relative to lasalocid; for Ratio 1/4 (inotropic potency / RBC K+ leak potency): dog inotropy vs human RBC K+ leak; for RBC K+ Leak Potency (column 4): reciprocal of concentration which leaked 15 mM K+/hr from erythrocytes
Description: ^4 RBC K^+ leak potency is the reciprocal of the concentration
which leaked 15 mMK^+ /hr. from the erythrocytes of whole fresh human
blood, relative to that of Lasalocid. The reference concentration of
The intrinsic ability of the test ionophores to release cellular potassium was measured using whole human blood and assaying the release of erythrocyte potassium into the plasma fraction in vitro.

[3] = test system: skeletal and cardiac muscle; conditions: prior finding ("it has been shown"); in words; cited from earlier work
cardiac muscle = conditions: in words; cited from earlier work
[4] = test system: heart and coronary circulation of anesthetized dogs; assay: Hemodynamic effects of intravenous salinomycin in anesthetized normal dogs; type: in vivo, dog (normal female mongrel dogs); conditions: for Coronary Flow, % of Control / dP/dt, % of Control: Table 1
Description: Normal female mongrel dogs, weighing 30-35 lbs., were anesthetized with intravenous sodium pentobarbital (20 mg/kg.) and artificially ventilated. […] The derivative of the left ventricular pressure (dP/dt) was obtained from a Millar micromanometer-tipped catheter after differentiation by an appropriate R-C circuit. The electrocardiogram was monitored from standard leads attached to the extremities of the dog. All parameters were recorded simultaneously and continuously by a multichannel photographer recorder, and were monitored during the experiments by a multichannel oscilloscope.
After all vital parameters had become stable, 0.03 mg/kg of salinomycin in absolute ethanol was administered over a period of 30 seconds to 1 minute. An hour later a larger dose of 0.06 mg/kg was administered to the same dog.
Further information on the hemodynamic effects of salinomycin were obtained in a study involving seven dogs. Using the same procedure set forth hereinabove and after all vital parameters had become stable, 0.075 mg/kg of salinomycin in absolute ethanol was administered over a period of 30 seconds to one minute.

heart = assay: Studies in anesthetized normal and infarcted dogs and isolated guinea pig and rabbit hearts; type: in vivo, dog; conditions: in words
intra-cellular Na+ = assay: Intracellular cation exchange (Na+ for K+); conditions: in exchange for K+; in words
[5] = test system: skeletal and cardiac muscle; assay: Skeletal and cardiac myopathy upon chronic administration; type: in vivo; conditions: in words
Oral LD50 in chickens = conditions: chicken, in vivo, oral administration
Oral LD50 in dogs = conditions: dog, in vivo, oral administration
Solubility in water = type: physicochemical; conditions: in words
[6] = inotropic potency normalized for coronary flow increase at doubling dose, relative to lasalocid, anesthetized dogs
[7] = reciprocal of dose required to double dP/dt Max., relative to lasalocid, anesthetized dogs
[8] = 0.03 mg/kg in absolute ethanol, anesthetized dog
[9] = 0.06 mg/kg, an hour after 0.03 mg/kg, same dog
[10] = 0.075 mg/kg, seven dogs, P <.001
[11] = 0.075 mg/kg, seven dogs, P <.01

COC1CCC(OC2C(C)C(O)(C(C)C(=O)O)OC(CC3CC(OC)C(C)C4(O3)OC(C)(C3CCC(C5CCC(C6OC(C)(O)C(C)C(OC)C6C)O5)O3)C(OC)C4C)C2(C)OC)OC1C (stereo not drawn) [A-204]
coronary flow potency compared with salinomycin ([1]; in words): markedly reduced coronary flow potency than salinomycin
inotropic potency compared with salinomycin ([1]; in words): slightly higher inotropic potency than salinomycin
Coronary Flow Potency [1, 6]: 14.1
Inotropic Potency [1, 7]: 13.1
Ratio 2/4 (coronary flow potency / RBC K+ leak potency) [2]: .34
Ratio 1/4 (inotropic potency / RBC K+ leak potency) [2]: .32
increase in potassium cellular leakage potency compared with salinomycin ([2]; human): 400%
RBC K+ Leak Potency (column 4) [2]: 41.0
skeletal and cardiac myopathy upon chronic administration [3]: exhibits the undesirable side effects of skeletal and cardiac myopathy upon chronic administration

CO[C@H]1CC[C@@H](O[C@H]2C[C@H]([C@]3(C)CC[C@]4(C[C@H](O)[C@@H](C)[C@@H]([C@@H](C)/C=C(\C)C(=O)[C@H](C)C[C@H](C)C(=O)O)O4)O3)O[C@]3(O[C@@H]([C@H]4O[C@@](O)(CO)[C@H](C)C[C@@H]4C)C[C@@H]3C)[C@@H]2C)O[C@@H]1C [Dianemycin]
Coronary Flow Potency [1, 6]: 4.6
Inotropic Potency [1, 7]: 4.3
Ratio 2/4 (coronary flow potency / RBC K+ leak potency) [2]: .25
Ratio 1/4 (inotropic potency / RBC K+ leak potency) [2]: .24
RBC K+ Leak Potency (column 4) [2]: 18.0

CC[C@@H](C(=O)[C@@H](C)[C@@H](O)[C@H](C)CCc1ccc(C)c(O)c1C(=O)O)[C@H]1O[C@](CC)([C@H]2CC[C@](O)(CC)[C@H](C)O2)C[C@@H]1C [Lasalocid, lasalocid]
Coronary Flow Potency [1]: 1.0
Inotropic Potency [1]: 1.0
Ratio 2/1 (coronary flow potency / inotropic potency) ([1]; relative to lasalocid, anesthetized dogs): 1.0
Ratio 2/4 (coronary flow potency / RBC K+ leak potency) [2]: 1.0
Ratio 1/4 (inotropic potency / RBC K+ leak potency) [2]: 1.0
concentration which leaked 15 mM K+/hr. from erythrocytes ([2]; human): 11.5 µM
cardiac effects (prior art) (cardiac muscle): cardiotrophic properties

CC[C@@]1([C@@H]2O[C@@H]([C@H]3O[C@@](O)(CO)[C@H](C)C[C@@H]3C)C[C@@H]2C)CC[C@H]([C@]2(C)CC[C@]3(C[C@H](O)[C@@H](C)[C@@H]([C@@H](C)[C@@H](OC)[C@H](C)C(=O)O)O3)O2)O1 [Monensin]
Coronary Flow Potency [1, 6]: 10.0
Inotropic Potency [1, 7]: 6.1
Ratio 2/4 (coronary flow potency / RBC K+ leak potency) [2]: 1.4
Ratio 1/4 (inotropic potency / RBC K+ leak potency) [2]: .84
RBC K+ Leak Potency (column 4) [2]: 7.2

COC1CC(CC2CCC(C)C(C(C)C(=O)O)O2)OC2(OC(C)(C3CCC(C)(C4OC(C5OC(O)(CO)C(C)CC5C)CC4C)O3)CC2C)C1C (stereo not drawn) [Nigerlcin]
Coronary Flow Potency [1, 6]: 3.4
Inotropic Potency [1, 7]: 2.8
Ratio 2/4 (coronary flow potency / RBC K+ leak potency) [2]: .21
Ratio 1/4 (inotropic potency / RBC K+ leak potency) [2]: .17
RBC K+ Leak Potency (column 4) [2]: 16.4

CC[C@@H](C(=O)[C@@H](C)[C@@H](O)[C@H](C)[C@@H]1O[C@@H]([C@@H](CC)C(=O)O)CC[C@@H]1C)[C@H]1O[C@]2(C=C[C@@H](O)[C@]3(CC[C@@](C)([C@H]4CC[C@](O)(CC)[C@H](C)O4)O3)O2)[C@H](C)C[C@@H]1C [Salinomycin, salinomycin]
Coronary Flow, % of Control [4, 8]: 175%
dP/dt, % of Control [4, 8]: 131%
Coronary Flow, % of Control [4, 9]: 375%
dP/dt, % of Control [4, 9]: 180%
Cardiac Output, Mean % Control [4, 10]: 178%
dP/dt Max., Mean % Control [4, 10]: 204%
Coronary Flow, Mean % Control [4, 11]: 522%
Coronary Resistance, Mean % Control [4, 11]: 38%
Heart Rate, Mean % Control [4, 11]: 113%
Total Peripheral Resistance, Mean % Control ([4]; 0.075 mg/kg, seven dogs, P <.02): 77%
Cardiac Output + Salinomycin (mean ± SE) ([4]; 0.075 mg/kg, seven dogs, control 1.83 ± .2, P <.001): 3.2 ± .2 L/min
Coronary Flow + Salinomycin (mean ± SE) ([4]; 0.075 mg/kg, seven dogs, control 21 ± 4.8, P <.01): 93 ± 19 mL/min
Heart Rate + Salinomycin (mean ± SE) ([4]; 0.075 mg/kg, seven dogs, control 152 ± 7, P <.01): 170 ± 4 min.^-1
Coronary Resistance + Salinomycin (mean ± SE) ([4]; 0.075 mg/kg, seven dogs, control 460 ± 98, P <.01): 150 ± 25 dynes sec cm^-5
dP/dt Max. + Salinomycin (mean ± SE) ([4]; 0.075 mg/kg, seven dogs, control 2340 ± 265, P <.001): 4700 ± 618 mm. Hg sec^-1
Total Peripheral Resistance + Salinomycin (mean ± SE) ([4]; 0.075 mg/kg, seven dogs, control 4200 ± 600, P <.02): 3200 ± 400 dynes sec cm^-5
ED (2-fold dP/dt max) ([4]; Canis lupus familiaris, iv, in absolute ethanol, anesthetized dogs, read-out: dose that doubles left ventricular max. dP/dt): 0.075 mg/kg
cardiovascular effects (inotropic, chronotropic) ([4]; in words): positive inotropic effects with minimal chronotropic effects
separation between positive inotropy and coronary vasodilation ([1]; compared with other carboxylic ionophores, in words): more pronounced separation between the two principal cardiotonic responses of positive inotropy and coronary vasodilation
Coronary Flow Potency [1, 6]: 19.6
Inotropic Potency [1, 7]: 12.1
pharmacological effect vs potassium release, compared with other carboxylic ionophores ([2]; Table 3, columns 5 and 6, in words): superior to all other carboxylic ionophores examined
Ratio 2/4 (coronary flow potency / RBC K+ leak potency) [2]: 1.96
Ratio 1/4 (inotropic potency / RBC K+ leak potency) [2]: 1.21
RBC K+ Leak Potency (column 4) [2]: 10.0
effect on cardiac output, coronary flow and myocardial work efficiency (heart): increases in cardiac output, coronary flow and myocardial work efficiency
effect on coronary arteries (heart): dilates the coronary arteries
effect on force of myocardial contraction and heart rate (heart): increases the force of myocardial contraction and heart rate
effect on total peripheral resistance (heart): decreases the total peripheral resistance
effect on intra-cellular Na+ (intra-cellular Na+): increase in intra-cellular Na^+ in exchange for K^+
skeletal and cardiac myopathy upon chronic administration [5]: This undesirable effect has not been shown
LD50 (Oral LD50 in chickens): 125 mg/kg
LD50 (Oral LD50 in dogs): 10 mg/kg
solubility in water (Solubility in water): minimal solubility in water

CO[C@H]1C[C@@H](C[C@H]2O[C@@](O)([C@H](C)C(=O)O)[C@H](C)[C@H](OC)[C@@]2(C)O[C@H]2CC[C@@H](OC)[C@H](C)O2)O[C@]2(O[C@@](C)([C@@H]3CC[C@H]([C@H]4CC[C@H]([C@H]5O[C@](C)(O)[C@H](C)C[C@@H]5C)O4)O3)[C@H](OC)[C@H]2C)[C@@H]1C [Septamycin]
Inotropic Potency [1, 7]: 2.0

CC[C@@H]1O[C@@H]([C@]2(C)C[C@@H](C)[C@](O)([C@]3(C)CC[C@@H]([C@@H](O)[C@]4(O)O[C@H](C[C@@]5(O)O[C@@H]([C@@H](C)[C@H](O)C[C@H]6CC[C@H](C)[C@@H]([C@@H](C)C(=O)O)O6)CC[C@@H]5C)[C@@H](C)C[C@H]4C)O3)O2)CC[C@@]1(C)O [X-206]
Coronary Flow Potency [1, 6]: 8.6
Inotropic Potency [1, 7]: 7.7
Ratio 2/4 (coronary flow potency / RBC K+ leak potency) [2]: .79
Ratio 1/4 (inotropic potency / RBC K+ leak potency) [2]: .70
RBC K+ Leak Potency (column 4) [2]: 10.9

NCCc1ccc(O)c(O)c1 [dopamine]
cardiac effects (prior art) (cardiac muscle): exerts positive inotropic and chronotropic effects

Lysocellin
Inotropic Potency [1, 7]: 1.5
Ratio 1/4 (inotropic potency / RBC K+ leak potency) [2]: .36
RBC K+ Leak Potency (column 4) [2]: 4.1
